We go through 1 compound from patent US8999962B2, “Method for increasing bone density and/or reducing any osteochondral defects in an animal and a composition including vitamin K” (priority 2008, dated 2015).

Data set [1] in a line: Degradation of K1 by sunlight. The class given is physicochemical. The following applies: after 4 hours exposure to bright sunlight. On the procedure:
Degradation of K1 begins rapidly as soon as photosynthesis ceases and the rate of degradation is directly related to the intensity of UVB. Pure K1 in solution is denatured in 20 minutes in direct sunlight. […] Aside from the degradation of K1, a further problem herbivores have is that the concentration of other fat soluble nutrients such as lutein in green vegetation may be up to 100 times higher than the concentration of vitamin K1. Lutein competes with the absorption and metabolism of vitamin K1 (see Mitchell G. V, Cook K. K., Jenkins M. Y, Grundel E International Journal of Vitamin and Nutrition Research 2001, 71: 30) as well as high levels of Vitamin E (see Tovar A, Ameho C. K. Blumberg J. B., Peterson J. W, Smith D, Booth S. Nutrition And Metabolism 2006, 3:29) and therefore with the combination of UV, the plant matrix and competition with other fat soluble vitamins, the actual amount of vitamin K1 available is much less than quoted or expected. It follows that the vitamin K requirement for animals and humans has been grossly underestimated resulting in vitamin K deficiency.
It is known that Vitamin K1 (K1) is rapidly degraded by sunlight (UV). For vitamin K1 to be a stable component of a vitamin product, it is necessary to protect it using physical and/or chemical means. It was shown that a loss of approximately 20% of K1 occurred after 4 hours exposure to bright sunlight.

The conditions of data set [2]: pure K1 in solution, direct sunlight; cited from earlier work.
The conditions of data set [3]: of the apparent concentration in the leaf, cited from earlier work.

Consider `CC1=C(C/C=C(\C)CCC[C@H](C)CCC[C@H](C)CCCC(C)C)C(=O)c2ccccc2C1=O` [Example K1, Phylloquinone], for which the “loss of K1” value in data set [1] is recorded as “approximately 20%”. The “time in which pure K1 is denatured” value in data set [2] is 20 min. Also, the “natural bioavailability when consumed with fat” value in data set [3] (consumed with fat) is on record as 15-16%. Moreover, in data set [3], the natural bioavailability was 8-10%.
